# Assay results: patent publication US20210186962A1, “METHODS OF SCHIZOPHRENIA TREATMENT” (INTRA-CELLULAR THERAPIES, INC., priority 2019, published 2021)
# Experiments:
# [1] = tested on: elderly subjects with dementia; settings: cited from earlier work
# [2] = tested on: adult patients with schizophrenia; experiment: Pooled short-term (4- to 6-week) placebo-controlled schizophrenia trials, safety; assay type: in vivo, human; settings: for Somnolence/Sedation, adverse reaction incidence: placebo 10%, 4-methylbenzenesulfonate
# Protocol: Of these patients, 811 participated in short-term (4- to 6-week), placebo-controlled trials with doses ranging from 14 to 84 mg/day.
# In the 4- to 6-week trials, data were collected using the Simpson Angus Scale (SAS) for EPS (total score ranges from 0 to 40), the Barnes Akathisia Rating Scale (BARS) for akathisia (total score ranges from 0 to 14), and the Abnormal Involuntary Movement Scale (AIMS) for dyskinesia (total score ranges from 0 to 28).
# [3] = tested on: patients with stable schizophrenia; experiment: Uncontrolled open-label trial for up to 1 year; assay type: in vivo, human
# Excerpt: A total of 4.7% of patients with normal hemoglobin A1c (<6.5%) at baseline developed elevated levels (>6.5%) post-baseline.
# [4] = tested on: patients with schizophrenia; experiment: QTcF four-arm crossover study; assay type: in vivo, human
# Protocol: QTcF interval was evaluated in a randomized, placebo- and active-(moxifloxacin 400 mg) controlled, four-arm crossover study utilizing concentration-QTc effect modeling in 33 patients with schizophrenia.
# [5] = tested on: adult patients with a diagnosis of schizophrenia; experiment: Study 1 (NCT01499563), four-week placebo-controlled, PANSS total score; assay type: in vivo, human
# Excerpt: Study 1 (NCT01499563) was a four-week, randomized, double-blind, placebo-controlled, multi-center study in adult patients with a diagnosis of schizophrenia according to the DSM-IV-TR criteria. The primary efficacy measure was the Positive and Negative Syndrome Scale (PANSS) total score. The PANSS is a 30-item scale used to measure symptoms of schizophrenia. Each item is rated by a clinician on a seven-point scale. A score of 1 indicates the absence of symptoms, and a score of 7 indicates extremely severe symptoms. The PANSS total score may range from 30 to 210 with higher scores reflecting greater overall symptom severity.
# Median age was 42 years (range 20 to 55 years). 17% were female, 19% were Caucasian, and 78% were African American.
# [6] = tested on: adult patients with a diagnosis of schizophrenia; experiment: Study 2 (NCT02282761), four-week placebo-controlled, PANSS total score; assay type: in vivo, human
# Excerpt: Study 2 (NCT02282761) was a four-week, randomized, double-blind, placebo-controlled, multi-center study in adult patients with a diagnosis of schizophrenia according to the DSM-5 criteria. The primary efficacy measure was the PANSS total score. […] Median age was 44 years (range 19 to 60 years); 23% were female, 26% were Caucasian and 66% were African American.
# [7] = biological target: dopamine D2 receptors (Homo sapiens, UniProt P14416); experiment: Receptor binding affinity, dopamine D2
# dopamine D2 receptors, sequence (P14416 whole entry): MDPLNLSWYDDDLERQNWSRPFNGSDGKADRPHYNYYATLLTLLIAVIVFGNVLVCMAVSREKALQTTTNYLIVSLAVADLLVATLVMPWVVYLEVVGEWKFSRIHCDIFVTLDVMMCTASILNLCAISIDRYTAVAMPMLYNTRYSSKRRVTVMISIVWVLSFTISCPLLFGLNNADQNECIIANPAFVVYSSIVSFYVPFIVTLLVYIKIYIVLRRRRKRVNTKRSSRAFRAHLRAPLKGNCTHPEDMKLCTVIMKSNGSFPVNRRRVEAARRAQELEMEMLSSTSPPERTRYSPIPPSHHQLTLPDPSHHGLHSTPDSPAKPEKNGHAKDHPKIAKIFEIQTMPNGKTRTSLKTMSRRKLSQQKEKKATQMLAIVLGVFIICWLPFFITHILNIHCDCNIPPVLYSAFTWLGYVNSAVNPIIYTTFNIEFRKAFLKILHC
# [8] = tested on: muscarinic receptors; experiment: Receptor binding, muscarinic; settings: at 100 nM
# [9] = tested on: histaminergic receptors; experiment: Receptor binding, histaminergic; settings: at 100 nM
# [10] = Human mass balance study, 14C-labeled oral dose; assay type: in vivo
# [11] = Plasma protein binding; assay type: in vitro ADME; settings: at 5 μM in human plasma (about 70-fold higher than therapeutic concentrations)
# [12] = tested on: UGT 1A1, 1A4, 2B15; AKR 1C1, 1B10, 1C4; CYP 3A4, 2C8, 1A2; experiment: In vitro studies of enzymes involved in metabolism; assay type: in vitro ADME
# [13] = Pharmacokinetics in specific populations; assay type: in vivo, human
# Excerpt: Use of lumateperone (e.g., lumateperone tosylate) is not recommended for patients with moderate (Child-Pugh class B) to severe hepatic impairment (Child-Pugh class C). […] No dosage adjustment is recommended for patients with mild hepatic impairment (Child-Pugh A).
# [14] = Drug interaction: effects of other drugs on lumateperone exposure; set-up: species or system human; settings: in vivo
# Excerpt: Such concomitant use should therefore be avoided. Moderate CYP 3A4 inhibitors include amprenavir, ciprofloxacin, cyclosporine, diltiazem, erythromycin, fluconazole, fluvoxamine, and verapamil. Strong CYP 3A4 inhibitors include clarithromycin, grapefruit juice, itraconazole, voriconazole, nefazodone, ritonavir, and nelfinavir.
# Such concomitant use should therefore be avoided. CYP 3A4 inducers include carbamazepine, phenytoin, rifampin, St. John's wort, bosentan, efavirenz, etravirine, modafinil, nafcillin, aprepitant, armodafinil, pioglitazone, and prednisone.
# [15] = Drug interaction: CYP3A4 substrate midazolam; assay type: in vivo, human; settings: single or multiple doses of lumateperone in patients with schizophrenia
# [16] = biological target: CYP1A2 (Homo sapiens, UniProt P05177); experiment: In vitro CYP inhibition; assay type: in vitro ADME
# CYP1A2 (Homo sapiens, UniProt P05177), sequence (P05177 whole entry): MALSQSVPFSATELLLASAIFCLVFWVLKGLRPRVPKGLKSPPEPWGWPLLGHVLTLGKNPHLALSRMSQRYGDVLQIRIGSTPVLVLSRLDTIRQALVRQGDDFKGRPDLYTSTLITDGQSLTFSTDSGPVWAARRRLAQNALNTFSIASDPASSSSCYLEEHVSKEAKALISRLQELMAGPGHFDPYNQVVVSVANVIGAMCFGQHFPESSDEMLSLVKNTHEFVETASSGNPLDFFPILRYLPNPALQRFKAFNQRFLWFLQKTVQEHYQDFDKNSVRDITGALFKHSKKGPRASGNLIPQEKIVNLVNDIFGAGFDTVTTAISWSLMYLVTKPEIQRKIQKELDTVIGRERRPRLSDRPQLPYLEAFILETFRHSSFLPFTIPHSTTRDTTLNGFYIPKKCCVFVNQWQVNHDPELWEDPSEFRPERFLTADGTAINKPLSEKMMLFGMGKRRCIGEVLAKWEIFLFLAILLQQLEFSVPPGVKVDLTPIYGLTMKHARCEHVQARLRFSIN
# [17] = biological target: CYP2C9 (Homo sapiens, UniProt P11712); experiment: In vitro CYP inhibition; assay type: in vitro ADME
# [18] = biological target: CYP2C19 (Homo sapiens, UniProt P33261); experiment: In vitro CYP inhibition; assay type: in vitro ADME
# CYP2C19, sequence (P33261 whole entry): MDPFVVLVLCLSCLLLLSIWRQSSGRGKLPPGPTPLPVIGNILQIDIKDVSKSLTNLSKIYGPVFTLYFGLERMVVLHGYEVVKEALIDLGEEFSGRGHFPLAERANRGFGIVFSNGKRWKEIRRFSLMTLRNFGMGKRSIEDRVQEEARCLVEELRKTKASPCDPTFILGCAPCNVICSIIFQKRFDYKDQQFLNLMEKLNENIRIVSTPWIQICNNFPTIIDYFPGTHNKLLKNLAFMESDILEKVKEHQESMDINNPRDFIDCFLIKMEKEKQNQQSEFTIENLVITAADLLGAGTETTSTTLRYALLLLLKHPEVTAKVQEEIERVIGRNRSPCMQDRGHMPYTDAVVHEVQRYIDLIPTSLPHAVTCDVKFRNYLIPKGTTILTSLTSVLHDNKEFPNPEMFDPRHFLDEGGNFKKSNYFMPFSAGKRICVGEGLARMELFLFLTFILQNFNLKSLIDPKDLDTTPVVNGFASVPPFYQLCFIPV
# [19] = biological target: CYP2D6 (Homo sapiens, UniProt P10635); experiment: In vitro CYP inhibition; assay type: in vitro ADME
# CYP2D6, sequence (P10635 whole entry): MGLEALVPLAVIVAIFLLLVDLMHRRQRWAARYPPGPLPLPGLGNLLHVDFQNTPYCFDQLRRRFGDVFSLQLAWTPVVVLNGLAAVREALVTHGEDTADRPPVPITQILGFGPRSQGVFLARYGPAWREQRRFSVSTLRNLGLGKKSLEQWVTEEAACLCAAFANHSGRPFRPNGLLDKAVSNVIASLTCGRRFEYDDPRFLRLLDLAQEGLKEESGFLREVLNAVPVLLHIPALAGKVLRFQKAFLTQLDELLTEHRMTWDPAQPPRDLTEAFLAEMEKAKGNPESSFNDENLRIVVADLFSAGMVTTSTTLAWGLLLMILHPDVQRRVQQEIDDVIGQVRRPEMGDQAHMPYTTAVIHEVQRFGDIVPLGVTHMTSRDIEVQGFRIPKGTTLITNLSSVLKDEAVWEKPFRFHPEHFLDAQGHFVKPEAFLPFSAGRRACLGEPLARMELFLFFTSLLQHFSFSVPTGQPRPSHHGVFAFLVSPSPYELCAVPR
# [20] = tested on: CYP1A2; experiment: In vitro CYP induction; assay type: in vitro ADME
# [21] = tested on: CYP2B6; experiment: In vitro CYP induction; assay type: in vitro ADME
# [22] = tested on: CYP3A4; experiment: In vitro CYP induction; assay type: in vitro ADME
# [23] = biological target: P-gp (Homo sapiens, UniProt P08183); experiment: In vitro transporter substrate; assay type: in vitro ADME
# P-gp, sequence (P08183 whole entry): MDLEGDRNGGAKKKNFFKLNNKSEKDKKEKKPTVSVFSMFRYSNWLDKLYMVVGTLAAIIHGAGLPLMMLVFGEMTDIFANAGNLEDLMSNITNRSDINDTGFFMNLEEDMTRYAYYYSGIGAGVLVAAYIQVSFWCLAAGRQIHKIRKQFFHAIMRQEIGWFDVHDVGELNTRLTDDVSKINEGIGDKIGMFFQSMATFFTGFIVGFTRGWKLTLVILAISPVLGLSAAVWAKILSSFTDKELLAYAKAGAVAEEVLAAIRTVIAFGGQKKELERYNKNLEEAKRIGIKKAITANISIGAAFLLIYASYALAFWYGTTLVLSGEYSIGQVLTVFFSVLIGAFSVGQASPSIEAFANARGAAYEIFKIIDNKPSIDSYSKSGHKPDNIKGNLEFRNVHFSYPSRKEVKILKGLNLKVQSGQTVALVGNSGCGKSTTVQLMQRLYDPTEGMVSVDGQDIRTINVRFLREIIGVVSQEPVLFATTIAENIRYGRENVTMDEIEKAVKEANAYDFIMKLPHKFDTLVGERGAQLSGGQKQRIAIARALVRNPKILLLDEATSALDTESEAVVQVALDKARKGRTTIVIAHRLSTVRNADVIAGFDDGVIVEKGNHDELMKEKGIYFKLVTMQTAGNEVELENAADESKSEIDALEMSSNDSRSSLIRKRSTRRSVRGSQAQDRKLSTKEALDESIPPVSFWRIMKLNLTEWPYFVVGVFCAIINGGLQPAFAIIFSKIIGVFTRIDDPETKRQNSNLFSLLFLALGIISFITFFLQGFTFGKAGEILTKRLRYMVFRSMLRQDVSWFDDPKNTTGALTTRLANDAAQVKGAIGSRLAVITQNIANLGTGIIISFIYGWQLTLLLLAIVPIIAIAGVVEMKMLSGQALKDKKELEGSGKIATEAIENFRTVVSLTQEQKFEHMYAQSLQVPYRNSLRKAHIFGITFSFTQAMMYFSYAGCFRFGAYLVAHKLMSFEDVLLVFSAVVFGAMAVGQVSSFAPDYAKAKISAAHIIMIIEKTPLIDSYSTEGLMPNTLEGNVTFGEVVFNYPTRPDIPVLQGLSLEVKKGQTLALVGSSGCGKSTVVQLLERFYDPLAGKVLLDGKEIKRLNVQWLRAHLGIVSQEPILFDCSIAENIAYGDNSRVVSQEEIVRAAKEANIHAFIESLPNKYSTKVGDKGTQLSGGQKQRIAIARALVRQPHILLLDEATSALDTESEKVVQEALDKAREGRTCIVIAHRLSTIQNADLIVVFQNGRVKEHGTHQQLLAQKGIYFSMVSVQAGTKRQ
# [24] = biological target: BCRP (Homo sapiens, UniProt Q9UNQ0); experiment: In vitro transporter substrate; assay type: in vitro ADME
# BCRP, sequence (Q9UNQ0 whole entry): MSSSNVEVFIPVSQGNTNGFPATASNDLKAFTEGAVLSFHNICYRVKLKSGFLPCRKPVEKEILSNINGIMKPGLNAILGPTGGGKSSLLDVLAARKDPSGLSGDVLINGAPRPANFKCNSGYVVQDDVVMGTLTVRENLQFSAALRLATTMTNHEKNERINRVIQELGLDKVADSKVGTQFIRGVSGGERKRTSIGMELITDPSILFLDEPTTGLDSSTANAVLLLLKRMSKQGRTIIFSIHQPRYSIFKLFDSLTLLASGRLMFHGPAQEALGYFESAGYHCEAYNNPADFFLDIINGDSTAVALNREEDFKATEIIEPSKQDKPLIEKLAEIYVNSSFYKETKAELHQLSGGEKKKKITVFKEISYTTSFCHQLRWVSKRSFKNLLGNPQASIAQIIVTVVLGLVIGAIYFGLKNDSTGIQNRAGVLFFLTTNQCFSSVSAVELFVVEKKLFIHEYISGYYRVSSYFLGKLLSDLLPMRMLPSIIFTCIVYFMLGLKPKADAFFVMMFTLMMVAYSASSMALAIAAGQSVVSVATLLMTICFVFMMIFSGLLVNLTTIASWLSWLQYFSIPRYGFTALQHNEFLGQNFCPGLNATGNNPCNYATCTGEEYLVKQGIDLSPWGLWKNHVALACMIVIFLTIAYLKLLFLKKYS
# [25] = biological target: OCT2 (Homo sapiens, UniProt O15244); experiment: In vitro transporter inhibition; assay type: in vitro ADME
# [26] = biological target: OAT1 (Homo sapiens, UniProt Q4U2R8); experiment: In vitro transporter inhibition; assay type: in vitro ADME
# OAT1, sequence (Q4U2R8 whole entry): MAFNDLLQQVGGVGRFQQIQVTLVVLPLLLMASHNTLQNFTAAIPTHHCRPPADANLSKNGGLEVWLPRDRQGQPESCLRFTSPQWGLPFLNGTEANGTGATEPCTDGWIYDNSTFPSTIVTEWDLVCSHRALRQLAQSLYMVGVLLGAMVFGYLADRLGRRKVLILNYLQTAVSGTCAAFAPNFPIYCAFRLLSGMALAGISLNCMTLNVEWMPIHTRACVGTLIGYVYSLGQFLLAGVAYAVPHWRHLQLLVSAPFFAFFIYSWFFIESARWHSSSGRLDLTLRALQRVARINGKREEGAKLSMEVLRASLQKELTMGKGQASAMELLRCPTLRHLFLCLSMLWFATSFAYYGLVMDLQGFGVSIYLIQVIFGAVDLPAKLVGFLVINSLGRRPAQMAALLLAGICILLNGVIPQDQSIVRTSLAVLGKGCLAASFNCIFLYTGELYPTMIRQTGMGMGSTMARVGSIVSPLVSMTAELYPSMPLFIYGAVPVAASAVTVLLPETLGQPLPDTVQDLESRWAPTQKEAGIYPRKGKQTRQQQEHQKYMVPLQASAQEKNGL
# [27] = biological target: (Homo sapiens, UniProt Q8TCC7); experiment: In vitro transporter inhibition; assay type: in vitro ADME
# (Homo sapiens, UniProt Q8TCC7), sequence (Q8TCC7 whole entry): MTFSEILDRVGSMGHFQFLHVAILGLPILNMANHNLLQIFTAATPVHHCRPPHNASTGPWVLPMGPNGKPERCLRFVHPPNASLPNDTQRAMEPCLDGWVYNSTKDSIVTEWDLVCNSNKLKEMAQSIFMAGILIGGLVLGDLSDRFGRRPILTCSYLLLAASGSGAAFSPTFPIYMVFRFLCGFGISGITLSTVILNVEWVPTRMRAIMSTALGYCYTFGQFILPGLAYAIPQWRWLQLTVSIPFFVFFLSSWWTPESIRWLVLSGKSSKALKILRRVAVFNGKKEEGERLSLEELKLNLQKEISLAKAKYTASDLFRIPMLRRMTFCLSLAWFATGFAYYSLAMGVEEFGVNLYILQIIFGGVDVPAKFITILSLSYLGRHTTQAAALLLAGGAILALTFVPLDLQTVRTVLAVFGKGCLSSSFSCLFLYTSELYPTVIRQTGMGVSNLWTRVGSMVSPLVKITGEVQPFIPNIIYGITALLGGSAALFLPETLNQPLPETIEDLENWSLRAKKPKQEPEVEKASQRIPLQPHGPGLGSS
# [28] = biological target: OATP1B3 (Homo sapiens, UniProt Q9NPD5); experiment: In vitro transporter inhibition; assay type: in vitro ADME
# [29] = biological target: OATP1B1 (Homo sapiens, UniProt Q9Y6L6); experiment: In vitro transporter inhibition; assay type: in vitro ADME
# [30] = Pharmacokinetic studies (oral, intravenous, food effect)
# [31] = 4- to 6-week trials, 60 mg tosylate daily, N = 406, placebo 1%
# [32] = 4- to 6-week trials, 60 mg tosylate daily, N = 406, placebo 2%
smiles,measurement,setting,value
O=C1CCc2ccc(OCCCCN3CCN(c4cccc(Cl)c4Cl)CC3)cc2N1 [aripiprazole],"incidence of stroke and transient ischemic attack, including fatal stroke, versus placebo",[1],higher incidence
Cc1nc2n(c(=O)c1CCN1CCC(c3noc4cc(F)ccc34)CC1)CCCC2 [risperidone],"incidence of stroke and transient ischemic attack, including fatal stroke, versus placebo",[1],higher incidence
"CN1CCN2c3c(cccc31)[C@@H]1CN(CCCC(=O)c3ccc(F)cc3)CC[C@@H]12.Cc1ccc(S(=O)(=O)O)cc1 [Lumateperone tosylate, 4-((6bR,10aS)-3-methyl-2,3,6b,9,10,10a-hexahydro-1H,7H-pyrido[3′,4′: 4,5]pyrrolo[1,2,3-de]quinoxalin-8-yl)-1-(4-fluoro-phenyl)-butan-1-one 4-methylbenzenesulfonate]",frequency of reported events related to extrapyramidal symptoms (EPS),"[2]; 4- to 6-week placebo-controlled studies, placebo 6.3%",6.7%
same,"Creatine Phosphokinase Increased, adverse reaction incidence",[2]; [31],4%
same,"Fatigue, adverse reaction incidence",[2]; [31],3%
same,"Hepatic Enzymes Increased (ALT, AST, “hepatic enzymes” increased, or liver function tests abnormal), adverse reaction incidence",[2]; [31],2%
same,"Dry Mouth, adverse reaction incidence",[2]; [32],6%
same,"Vomiting, adverse reaction incidence",[2]; [32],3%
same,"Dizziness (dizziness, dizziness postural), adverse reaction incidence","[2]; 4- to 6-week trials, 60 mg tosylate daily, N = 406, placebo 3%",5%
same,"Nausea, adverse reaction incidence","[2]; 4- to 6-week trials, 60 mg tosylate daily, N = 406, placebo 5%",9%
same,"Somnolence/Sedation, adverse reaction incidence","[2]; 4- to 6-week trials, 60 mg tosylate daily, N = 406",24%
same,"Somnolence/Sedation, adverse reaction incidence","[2]; 4- to 6-week trials, 60 mg tosylate daily, N = 406, listed as lumateperone tosylate",24%
same,"mean change from baseline, Barnes Akathisia Rating Scale (BARS)","[2]; 4- to 6-week trials, score range 0 to 14, placebo 0",−0.1
same,"mean change from baseline, Abnormal Involuntary Movement Scale (AIMS)","[2]; 4- to 6-week trials, score range 0 to 28, placebo 0",0.1
same,"mean change from baseline, Simpson Angus Scale (SAS)","[2]; 4- to 6-week trials, score range 0 to 40, placebo 0",0.1
same,frequency of orthostatic hypotension,"[2]; clinical trials, placebo 0%",0.7%
same,rate of syncope,"[2]; clinical trials, placebo 0.2%",0.2%
same,rate of any single adverse reaction leading to discontinuation,[2]; none occurred at >2%,≤ 2%
same,"mean changes from baseline and proportion of subjects with increase in weight ≥7% from baseline to end of study, versus placebo",[2]; pooled placebo-controlled trials,similar
same,mean change in body weight,"[3]; Day 175, SD 5.6",approximately −2 kg
same,mean change in body weight,"[3]; Day 350, SD 7.4",approximately −3.2 kg
same,patients with normal hemoglobin A1c (<6.5%) at baseline who developed elevated levels (>6.5%) post-baseline,[3]; up to 1 year,4.7%
same,placebo-corrected change from baseline QTcF (90% two-sided upper confidence interval),[4]; 42 mg orally once daily for 5 days,4.9 (8.9) ms
same,placebo-corrected change from baseline QTcF (90% two-sided upper confidence interval),[4]; supratherapeutic dose 126 mg orally once daily for 5 days,15.8 (19.8) ms
same,reduction from baseline to Day 28 in PANSS total score compared to placebo,[5]; 42 mg,statistically significant reduction
same,"PANSS Total, Placebo-subtracted Difference (95% CI)","[5]; 42 mg, Day 28, CI −10.5, −1.1",−5.8
same,"PANSS Total, LS Mean Change from Baseline (SE)","[5]; 42 mg, Day 28, N 84, placebo −7.4 (1.7)",−13.2 (1.7)
same,treatment effect on PANSS total score vs. placebo,[5]; 84 mg (two times the recommended daily dose),not statistically significant
same,treatment effect on PANSS total score vs. placebo,[6]; 28 mg (two-thirds of the recommended daily dose),not statistically significant
same,reduction from baseline to Day 28 in PANSS total score compared to placebo,[6]; 42 mg,statistically significant reduction
same,"PANSS Total, Placebo-subtracted Difference (95% CI)","[6]; 42 mg, Day 28, CI −7.8, −0.6",−4.2
same,"PANSS Total, LS Mean Change from Baseline (SE)","[6]; 42 mg, Day 28, N 150, placebo −10.3 (1.3)",−14.5 (1.3)
"CN1CCN2c3c(cccc31)[C@@H]1CN(CCCC(=O)c3ccc(F)cc3)CC[C@@H]12 [Lumateperone, 4-((6bR,10aS)-3-methyl-2,3,6b,9,10,10a-hexahydro-1H,7H-pyrido[3′,4′: 4,5]pyrrolo[1,2,3-de]quinoxalin-8-yl)-1-(4-fluoro-phenyl)-butan-1-one]",Ki,[7],0.032 µM
same,"inhibition, muscarinic receptors",[8],less than 50%
same,"inhibition, histaminergic receptors",[9],less than 50%
same,lumateperone share of total plasma radioactivity,[10]; after a single 14C-labeled oral dose,about 2.8%
same,dose excreted as unchanged lumateperone in the urine,[10]; human mass balance study,Less than 1%
same,metabolites identified in vivo,[10]; in vivo,more than twenty
same,fraction unbound at 5 μM,[11],0.026
same,enzymes involved in metabolism,[12],involved in the metabolism
same,exposure in patients with moderate and severe hepatic impairment,[13]; Child-Pugh class B and C,higher exposure
same,"differences in pharmacokinetics based on age, sex, or race",[13]; in vivo,No clinically significant differences
same,effect of concomitant CYP3A4 inducers on lumateperone exposure,[14],decreases the exposure
same,effect of concomitant moderate or strong CYP3A4 inhibitors on lumateperone exposure,[14],increases lumateperone exposure
same,effect on pharmacokinetics of midazolam (CYP3A4 substrate) or its metabolite 1-hydroxymidazolam,[15],No clinically significant differences
same,inhibition of CYP1A2,[16],little to no inhibition
same,inhibition of CYP2C9,[17],little to no inhibition
same,inhibition of CYP2C19,[18],little to no inhibition
same,inhibition of CYP2D6,[19],little to no inhibition
same,induction of CYP1A2,[20],no induction
same,induction of CYP2B6,[21],no induction
same,induction of CYP3A4,[22],no induction
same,P-gp substrate,[23],did not appear to be
same,BCRP substrate,[24],did not appear to be
same,inhibition of OCT2,[25],little to no inhibition
same,inhibition of OAT1,[26],little to no inhibition
same,inhibition of OATS,[27],little to no inhibition
same,inhibition of OATP1B3,[28],little to no inhibition
same,inhibition of OATP1B1,[29],little to no inhibition
same,increase of mean AUC by food,[30]; high-fat meal,9%
same,lowering of mean Cmax by food,[30]; high-fat meal,33%
same,Vd,"[30]; human, in vivo, iv",~4.1 L/kg
same,clearance,"[30]; human, in vivo, iv",~465 mL/min
same,half-life,"[30]; human, in vivo, iv",~18 h
same,bioavailability,"[30]; human, plasma, oral",~4.4%
same,Tmax,"[30]; human, plasma, oral, delay of median Tmax by food, high-fat meal",~1 h
same,Tmax,"[30]; human, plasma, oral, median Tmax, fasted state",1 h
same,Tmax,"[30]; human, plasma, oral, median Tmax, in the presence of food",2 h
same,increase in steady-state exposure with dose,[30]; range of 21 mg to 56 mg,approximately dose-proportional
Cc1cc2c(s1)Nc1ccccc1N=C2N1CCN(C)CC1 [olanzapine],"incidence of stroke and transient ischemic attack, including fatal stroke, versus placebo",[1],higher incidence
